Laboratory results taken from patent US20260317367A1, “SALTS INCLUDING CRYSTALLINE SALTS OF 25-HYDROXY-CHOLEST-5-EN-3-SULFATE AND METHODS FOR PREPARING SAME” (Durect Corporation, priority 2022, published 2026).
“Also recorded” adds a separate entry of the source. Where a name gives a salt, the structure may show the parent alone.

Assays:
Assay type in all cases: physicochemical
[1] = Overall rank order of powder flowability (angle of repose and Hausner ratio)
Excerpt: Table C5 was generated by adding the relative rank order of the 25HC3S salts for angle of repose and Hausner ratio results, and creating an Over All Rank Order of the salts powder flowability. The salts with the lower overall rank order score had better powder flowability.

[2] = Appearance (color, clumping, flowability) of stored 25HC3S salts; conditions: for Appearance: listed as 25HC3S zinc
Description: (§1) Approximately 25 mg of each crystalline 25HC3S salt was added to 20 mL glass vials and each powder weight was recorded. Four vials were prepared for each salt and stored at 2-8° C. or 80° C. according to Table B2. The samples were scheduled initially to pull for testing at 3 weeks and 6 weeks' time points.
(§2) For those […] salts, the remaining vials stored at 2-8° C. for 3 weeks were allocated for storage at 60° C. for 1 week. Additional stability data was generated according to Table B3.
For appearance, each unopened vial was visually examined for color, clumping, and flowability.

[3] = Solid-state chemical stability of 25HC3S salts at 2-8° C., 60° C. and 80° C. (HPLC assay and degradation products)
Description: as §1, §2
Based on the molecular weights, and expected UV response factors of each salt used in this study, the expected analytical sample concentrations were within the range of the 25HC3S sodium reference standards (0.75 mg/mL to 1.25 mg/mL as 25HC3S sodium salt). However, due to the lower-than-expected purity of the 25HC3S benzathine salt, an additional standard was prepared at 0.125 mg/mL as 25HC3S sodium salt.
Samples were prepared by pipetting 20 mL of 100% methanol into each vial and mixing well, with sonication and vortexing to fully dissolve the samples for HPLC analysis.
Samples were prepared by pipetting 20 mL of 100% methanol into each vial followed by two rounds of sonication for 30 minutes, with 30 seconds of vortexing before and after each round. Sample aliquots were then centrifuged at 10,000 RPM for 10 minutes and the supernatant collected for HPLC analysis.
Samples were prepared by pipetting 20 mL of 100% methanol into each vial, followed by 5 seconds of vortexing. The undissolved powder in methanol was quantitatively transferred into 200 mL volumetric flasks. The sample vials were rinsed 3 times with methanol, with each rinsate transferred to the 200 mL volumetric flasks. The volumetric flasks were filled to about 90% volume and sonicated for 10 minutes to fully dissolve the powder. The flasks were filled to volume with methanol, mixed well and aliquots collected for HPLC analysis.
HPLC analysis was performed.

[4] = Solubility of 25HC3S salts after one day at room temperature (HPLC, as free acid); conditions: one day
Description: These fluids were prepared per the instruction listed by Biorelevant (Biorelevant.com). Each buffer concentrate was diluted with water and mixed well. FaSSIF, FeSSIF, FaSSGF powder was added to each buffer and mixed to completely dissolve the powder. Buffers were stored at room temperature and used within 48 hours of preparation.
25HC3S salts were weighed in 8 mL or 4 mL glass vials with Teflon coated screw caps. Aliquots of each solvent were added to each sample and vortexed for about one minute until excess solid remained. Samples were placed on shaker at room temperature with 210 motion per minute shaking.
After one day, samples were pulled and checked if excess solid was present. About 1.5 mL aliquot of each sample was centrifuged at 12000 rpm for 12 to 15 minutes. […] Aliquots of the top clear solution of each centrifuged sample in MeOH, EtOH, IPA and ACN were diluted with diluent (water:MeOH 95:5) and assayed by HPLC. Samples of the salts in aqueous media were assayed by HPLC without dilution.
All solubility sample solutions of 25HC3S salts were determined using HPLC. A linear standard curve was constructed using standards with concentration between 11 μg/mL to 1.5 mg/mL as free acid forcing the curve to origin. Solubilities are reported as mg/mL free acid 25HC3S. Detection limit (LOD) of the HPLC method was calculated as 0.0007 mg/mL.

[5] = Hausner ratio and compressibility index of 25HC3S salts; conditions: listed as 25HC3S zinc
Description: Although there are some variations in the method of determining the compressibility index and Hausner ratio, the basic procedure is to measure the unsettled apparent volume, VO, and the final tapped volume, Vf, of the powder after tapping the material until no further volume changes occur. The compressibility index and the Hausner ratio are calculated as follows: […]
Both the Hausner ratio and the compressibility index are empirically established. The Hausner ratio and compressibility index are not absolute properties of a material; its value can vary depending on the methodology used to determine them. In this case, since the 14 salts of 25HC3S were measured the same way, the relative values should be accurate.
Table C3, from USP <1174> Powder Flow, describes the flow character of the powder based on the compressibility index and Hausner ratio values.
Powder was carefully poured into a 5 mL glass graduated cylinder (to contain) until it was close to or at 5.0 mL. This initial volume was recorded as Vo. The graduated cylinder was tapped on a hard surface for 200 times and the volume was recorded. The cylinder was tapped 100 times more, and the final volume Vf was recorded. Typically, the volume after 200 taps was identical to after 300 taps, or within 0.1 mL.

[6] = rank, lower is better flow, listed as 25HC3S zinc
[7] = 80° C., 3 weeks, listed as 25HC3S Zinc

Powder flowability, overall (in words) ([1]; angle of repose and compressibility index/Hausner ratio combined, listed as zinc): next group | Angle of Repose Rank Order [1, 6]: 10 | Hausner Ratio Rank Order [1, 6]: 5 | Overall Rank Order (Total Score) ([1]; sum of both ranks, lower is better flow, listed as 25HC3S zinc): 15 | Appearance ([2]; 2-8° C., 3 wk): White, free flowing powder with clumping | Appearance ([2]; 60° C., 1 wk (after 3 weeks at 2-8° C.)): Light brown, melted material stuck to | Appearance after 3 weeks at 80° C. ([2]; 80° C., 3 weeks): completely burned | Appearance ([2]; 80° C., 3 wk): Dark brown, melted material stuck to | Assay ([3]; 2-8° C., 3 wk, 30240 min, listed as 25HC3S zinc): 92.6 % w/w | % Impurities, Total ([3]; 2-8° C., 3 wk, ND = Not Detected, listed as 25HC3S zinc): 0.6% | Overall physical and chemical stability (in words) ([3]; 2-8° C., 60° C., 80° C.): least physically and chemically stable | Overall physical and chemical stability (in words) ([3]; 2-8° C., 60° C., 80° C., listed as zinc): least stable | % Impurities, 25-HC ([3]; 25-Hydroxy-Cholesterol, 2-8° C., 3 wk, ND = Not Detected, listed as 25HC3S zinc): 0.2% | Physical and chemical solid-state stability (comments) ([3]; 60° C., 1 week, listed as 25HC3S Zinc): Totally decomposed after 1 weck at 60 °C | Assay ([3]; 60° C., 1 wk (after 3 weeks at 2-8° C.), 10080 min, listed as 25HC3S zinc, 10080 min): 0.0 % w/w | % Recovery of 2-8° C./3 wk vs 60° C./1 wk ([3]; 60° C., 1 wk, 10080 min, listed as 25HC3S zinc): 0.0% | % Impurities, Total ([3]; 60° C., 1 wk, ND = Not Detected, listed as 25HC3S zinc): 100.0% | % Recovery ([3]; 80° C., 3 wk, vs 2-8° C., 30240 min, listed as 25HC3S zinc, 30240 min): 0.0% | Assay ([3]; 80° C., 3 wk, 30240 min, listed as 25HC3S zinc): 0.0 % w/w | Stability after 1 week at 60° C. (in words) ([3]; solid state, 60° C., 1 week (after 3 weeks at 2-8° C.)): totally decomposed | Stability after 3 weeks at 80° C. (in words) ([3]; solid state, 80° C., 3 weeks): totally decomposed | Solubility in 5% Dextrose ([4]; 5% dextrose, room temperature, as free acid, ND = not detected, detection limit 0.7 μg/mL, 1440 min, listed as 25HC3S zinc): 13 µg/mL | Solubility in ethanol (in words) ([4]; EtOH, room temperature, listed as crystalline 25HC3S zinc): relatively high solubility | Solubility in FaSSGF (in words) ([4]; FaSSGF, room temperature, listed as crystalline 25HC3S zinc): low solubility | Solubility in FaSSIF ([4]; FaSSIF, room temperature, as free acid, 1440 min, listed as 25HC3S zinc): 133 µg/mL | Solubility in FaSSGF ([4]; Fasted State Simulated Gastric Fluid, pH 1.6, room temperature, as free acid, LOD 0.0007 mg/mL): no solubilized drug was detected | Solubility in FeSSIF ([4]; FeSSIF, room temperature, as free acid, 1440 min, listed as 25HC3S zinc): 673 µg/mL | Solubility in ACN ([4]; acetonitrile, room temperature, as free acid, 1440 min, listed as 25HC3S zinc): 100 µg/mL | Solubility in EtOH ([4]; ethanol, room temperature, as free acid, ≥ = did not reach saturation, 1440 min, listed as 25HC3S zinc): 31200 µg/mL | Solubility in IPA ([4]; isopropyl alcohol, room temperature, as free acid, 1440 min, listed as 25HC3S zinc): 3500 µg/mL | Solubility in MeOH ([4]; methanol, room temperature, as free acid, ≥ = did not reach saturation, 1440 min, listed as 25HC3S zinc): 39500 µg/mL | Solubility in saline / 0.9% sodium chloride (in words) ([4]; saline, room temperature, listed as crystalline 25HC3S zinc): low solubility | Solubility in H2O ([4]; water, room temperature, as free acid, ND = not detected, detection limit 0.7 μg/mL, 1440 min, listed as 25HC3S zinc): 6 µg/mL | Compressibility Index ([5]; Table C3 heads this index in %): 28 | Hausner Ratio [5]: 1.39
SMILES: CC(CCCC(C)(C)O)C1CCC2C3CC=C4CC(OS(=O)(=O)O)CCC4(C)C3CCC12C (stereo not shown) [Salt #3]
Physical and chemical solid-state stability (comments) [3, 7]: Totally decomposed after 1 weck at 60 °C and after 3 weeks at 80 °C | dissolution of decomposed samples in diluent / degradants observed (comments) [3, 7]: decomposed samples at 3-weeks at 80 °C did not dissolve in the diluent,; also recorded: therefore, no degradants were observed
